# Values of other authors as cited in patent publication US20140228218A1, “PARAFFINIC OIL AND CLASS B GIBBERELLIN BIOSYNTHESIS INHIBITOR COMPOSITIONS” (SUNCOR ENERGY INC., priority 2011, published 2014).
# System: the plant being treated
# Conditions: in vivo
smiles,measurement,value
"CC(C)(C)[C@@H](O)[C@@H](Cc1ccc(Cl)cc1)n1cncn1 (relative stereo) [paclobutrazol, (±)-(R*,R*)-beta-[(4-chlorophenyl)methyl]-alpha-(1,1-dimethylethyl)-1H-1,2,4-triazole-1-ethanol]",phytotoxicity to the plant being treated (in words),can cause phytoxicity
